Data taken from patent publication US11166460B2, “α-amino acrylate microbicide, and preparation method therefor and uses thereof” (priority 2017, dated 2021).
Values after ≈ are worked out from the molar mass of the structure shown. Where two headings read alike, the source gives them in different places.

Experiments:
[1] = test system: tobacco mosaic virus (TMV); experiment: Anti-TMV curative activity (treatment mode), live friction inoculation on tobacco seedlings; format: in vivo; settings: Tobacco mosaic virus, read-out: Anti-TMV activity, Curative effect (inhibition), 100 μg/mL, tobacco seedlings, checked on seventh day
[2] = test system: tobacco mosaic virus (TMV); experiment: Anti-TMV inactivation activity (inactivation mode), compound mixed with TMV before inoculation of tobacco leaves; format: in vivo; settings: Tobacco mosaic virus, read-out: Anti-TMV activity, Inactivation effect (inhibition)
[3] = test system: tobacco mosaic virus (TMV); experiment: Anti-TMV protective activity (protection mode), live friction inoculation on tobacco seedlings; format: in vivo; settings: Tobacco mosaic virus, read-out: Anti-TMV activity, Protection effect (inhibition)
[4] = test system: tobacco mosaic virus (TMV); experiment: Anti-TMV inducing activity (induction mode), tobacco seedlings; format: in vivo; settings: Tobacco mosaic virus, read-out: Anti-TMV activity, Induction effect (inhibition), 100 μg/mL, tobacco seedlings
[5] = test system: Alternaria solani; experiment: Fungicidal activity, fungi growth rate method, AS; format: cell-based; settings: Alternaria solani, 50 μg/mL
[6] = test system: Botrytis cinerea; experiment: Fungicidal activity, fungi growth rate method, BC; format: cell-based; settings: Botrytis cinerea, 50 μg/mL
[7] = test system: Cercospora arachidicola; experiment: Fungicidal activity, fungi growth rate method, CA; format: cell-based; settings: Mycosphaerella arachidis, 50 μg/mL
[8] = test system: wheat Gibberella zeae; experiment: microbe, parasite or virus in culture; format: cell-based; settings: Fusarium graminearum
[9] = test system: Phytophthora infestans (Mont) de Bary; experiment: microbe, parasite or virus in culture; format: cell-based; settings: Phytophthora infestans
[10] = test system: Physalospora piricola; experiment: Fungicidal activity, fungi growth rate method, PP; format: cell-based; settings: 50 μg/mL
[11] = test system: Pellicularia sasakii; experiment: Fungicidal activity, fungi growth rate method, PS; format: cell-based; settings: 50 μg/mL
[12] = test system: Rhizoctonia cerealis; experiment: Fungicidal activity, fungi growth rate method, RC; format: cell-based; settings: Ceratobasidium cereale, 50 μg/mL
[13] = test system: Sclerotinia sclerotiorum; experiment: microbe, parasite or virus in culture; format: cell-based; settings: Sclerotinia sclerotiorum; for inhibition at 50 µg/mL: 50 μg/mL; for EC90: read-out: EC90 against S. sclerotiorum in vitro
[14] = read-out: Fungicidal activity, inhibition, AS
[15] = read-out: Fungicidal activity, inhibition, BC
[16] = read-out: Fungicidal activity, inhibition, CA
[17] = read-out: Fungicidal activity, inhibition, GZ
[18] = read-out: Fungicidal activity, inhibition, PI
[19] = read-out: Fungicidal activity, inhibition, PP
[20] = read-out: Fungicidal activity, inhibition, PS
[21] = read-out: Fungicidal activity, inhibition, RC
[22] = read-out: Fungicidal activity (inhibition) against SS: Sclerotinia sclerotiorum
[23] = read-out: Fungicidal activity, inhibition, SS
[24] = read-out: Fungicidal activity (inhibition) against BC: Botrytis cinerea
[25] = read-out: Fungicidal activity (inhibition) against CA: Cercospora arachidicola
[26] = read-out: Fungicidal activity (inhibition) against PI: Phytophthora infestans (Mont) de Bary
[27] = read-out: Fungicidal activity (inhibition) against PP: Physalospora piricola
[28] = read-out: Fungicidal activity (inhibition) against PS: Pellicularia sasakii
[29] = read-out: Fungicidal activity (inhibition) against AS: Alternaria solani
[30] = read-out: Fungicidal activity (inhibition) against GZ: wheat Gibberella zeae
[31] = read-out: Fungicidal activity (inhibition) against RC: Rhizoctonia cerealis

| Structure (SMILES) | inhibition at 100 µg/mL [1] [%] | inhibition at 100 µg/mL [2] [%] | inhibition at 100 µg/mL [3] [%] | inhibition at 100 µg/mL [4] [%] | inhibition at 50 µg/mL [5, 14] [%] | inhibition at 50 µg/mL [6, 15] [%] | inhibition at 50 µg/mL [7, 16] [%] | inhibition at 50 µg/mL [8, 17] [%] | inhibition at 50 µg/mL [9, 18] [%] | inhibition at 50 µg/mL [10, 19] [%] | inhibition at 50 µg/mL [11, 20] [%] | inhibition at 50 µg/mL [12, 21] [%] | inhibition at 50 µg/mL [13, 22] [%] | inhibition at 50 µg/mL [13, 23] [%] | melting point [°C] | inhibition at 50 µg/mL [6, 24] [%] | inhibition at 50 µg/mL [7, 25] [%] | inhibition at 50 µg/mL [9, 26] [%] | inhibition at 50 µg/mL [10, 27] [%] | EC90 [13] [µg/mL] | further results |
| --- | --- | --- | --- | --- | --- | --- | --- | --- | --- | --- | --- | --- | --- | --- | --- | --- | --- | --- | --- | --- | --- |
| CC(C)(C)OC(=O)N1CCC(C(=O)N/C(=C\c2ccccc2)C(=O)N2CCC(O)(c3ccc(Br)cc3)CC2)CC1 [Compound 3, (Z)-N-[1-[[4-(4-bromophenyl)-4-hydroxy-1-piperidinyl]carbonyl]-2-phenylethenyl]-1-Boc-piperidine-4-carboxamide] | 59 | 14 | 51 | 0 | 32 | 24 | 25 | 34 | 19 | 21 | 23 | 26 | 60 to 80 | 75 | 145 to 147 | – | – | – | – | – | – |
| COC(=O)CCNC(=O)/C(=C/c1ccccc1)NC(=O)c1ccccc1 [Compound 35, (Z)-N-[1-[[1-(3-methyl propionate)amino]carbonyl]-2-phenylethenyl]benzamide] | 0 | 16 | 3 | 23 | 25 | 21 | 3 | 7 | 13 | 3 | 0 | 7 | – | 67 | 139 to 141 | – | – | – | – | – | – |
| COc1ccc(CNC(=O)/C(=C/c2ccccc2)NC(=O)c2ccccc2)cc1 [Compound 54, N-[(1Z)-2-phenyl-1-[[(4-methoxyphenylmethyl)amino]carbonyl]ethenyl]benzamide] | 49 | 28 | 0 | 0 | 16 | 12 | 16 | 42 | 2 | 13 | 17 | 17 | 60 to 80 | 75 | 138 to 140 | – | – | – | – | – | – |
| O=C(N/C(=C\c1ccccc1)C(=O)N1CCC(O)(c2ccc(Br)cc2)CC1)c1ccc(F)cc1 [Compound 6, (Z)-N-[1-[[4-(4-bromophenyl)-4-hydroxy-1-piperidinyl]carbonyl]-2-phenylethenyl]-4-fluorobenzamide] | 15 | 50 | 45 | 6 | 31 | 48 | 49 | 44 | 50 | 49 | 54 | 51 | – | 96 | 129 to 130 | 48 | 49 | 50 | 49 | 218 (≈ 416 µM) | inhibition at 50 µg/mL [11, 28]: 54% |
| O=C(N/C(=C\c1ccccc1)C(=O)N1CCC(O)(c2ccc(Br)cc2)CC1)c1ccccc1[N+](=O)[O-] [Compound 12, (Z)-N-[1-[[4-(4-bromophenyl)-4-hydroxy-1-piperidinyl]carbonyl]-2-phenylethenyl]-2-nitrobenzamide] | 56 | 28 | 23 | 0 | 12 | 8 | 16 | 39 | 10 | 17 | 17 | 14 | 100 | 100 | 122 to 124 | – | – | – | – | 192 (≈ 348 µM) | – |
| O=C(N/C(=C\c1ccccc1C(F)(F)F)C(=O)N1CCC(O)(c2ccc(Br)cc2)CC1)c1ccccc1 [Compound 22] | 59 | 58 | 0 | 22 | 12 | 8 | 25 | 28 | 5 | 8 | 15 | 26 | 100 | 100 | 149 to 151 | – | – | – | – | 199 (≈ 347 µM) | – |
| O=C(NC1CCCCC1)/C(=C/c1ccccc1)NC(=O)c1ccccc1 [Compound 40, (Z)-N-[1-[(cyclohexylamino)carbonyl]-2-phenylethenyl]benzamide] | 0 | 0 | 0 | 45 | 13 | 10 | 10 | 11 | 11 | 0 | 6 | 10 | 56 | 56 | 204 to 206 | ≤ 20 | < 25 | < 25 | < 20 | – | inhibition at 50 µg/mL [5, 29]: < 30%; inhibition at 50 µg/mL [8, 30]: < 45%; inhibition at 50 µg/mL [11, 28]: < 30%; inhibition at 50 µg/mL [12, 31]: < 20% |
| CNC(=O)/C(=C/c1ccccc1)NC(=O)c1ccccc1 [Compound 32, (Z)-N-[1-[(methylamino)carbonyl]-2-phenylethenyl]benzamide] | 0 | 25 | 58 | 10 | 5 | 11 | 16 | 6 | 16 | 12 | 13 | 4 | 80 | 80 | 185 to 187 | ≤ 20 | < 25 | < 25 | < 20 | – | inhibition at 50 µg/mL [5, 29]: < 30%; inhibition at 50 µg/mL [8, 30]: < 45%; inhibition at 50 µg/mL [11, 28]: < 30%; inhibition at 50 µg/mL [12, 31]: < 20% |
| O=C(N/C(=C\c1ccccc1)C(=O)N1CCC(O)(c2ccc(Br)cc2)CC1)c1ccc(C(F)(F)F)cc1 [Compound 9, (Z)-N-[1-[[4-(4-bromophenyl)-4-hydroxy-1-piperidinyl]carbonyl]-2-phenylethenyl]-4-(trifluoromethyl)benzamide] | 50 | 15 | 60 | 10 | 15 | 13 | 14 | 0 | 18 | 7 | 17 | 11 | 100 | 100 | 130 to 131 | – | – | – | – | 273 (≈ 477 µM) | – |
